Assay results from ChEMBL document CHEMBL1201862, “PubChem BioAssay data set” (2004).
Active and inactive are the calls of the source.

Tests used:
Protein skinhead-1 = target: T1, Protein skinhead-1 (Caenorhabditis elegans, UniProt P34707); format: functional
T1 sequence (P34707 whole entry): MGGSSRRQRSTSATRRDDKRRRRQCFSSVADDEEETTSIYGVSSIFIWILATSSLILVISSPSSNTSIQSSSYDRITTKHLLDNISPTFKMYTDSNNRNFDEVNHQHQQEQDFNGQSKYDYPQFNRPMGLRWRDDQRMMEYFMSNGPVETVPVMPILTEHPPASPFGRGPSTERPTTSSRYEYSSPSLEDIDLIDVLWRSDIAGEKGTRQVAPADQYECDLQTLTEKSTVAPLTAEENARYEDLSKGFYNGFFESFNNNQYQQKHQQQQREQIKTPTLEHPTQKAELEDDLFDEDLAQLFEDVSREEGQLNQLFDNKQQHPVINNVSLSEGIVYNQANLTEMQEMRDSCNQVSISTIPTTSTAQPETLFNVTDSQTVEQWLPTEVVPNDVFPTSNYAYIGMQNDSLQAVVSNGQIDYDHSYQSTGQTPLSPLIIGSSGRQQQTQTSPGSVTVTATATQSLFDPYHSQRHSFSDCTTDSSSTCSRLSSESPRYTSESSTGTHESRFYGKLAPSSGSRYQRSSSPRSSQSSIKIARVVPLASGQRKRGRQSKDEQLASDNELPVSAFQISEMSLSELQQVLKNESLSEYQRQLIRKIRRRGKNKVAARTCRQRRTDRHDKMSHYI

Large T antigen = Large T antigen (Simian virus 40, UniProt P03070); format: functional, Betapolyomavirus macacae;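 note: Confirmatory-stage PubChem screen for compounds that inhibit SV40 T antigen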
Chain of Large T antigen (P03070 whole entry): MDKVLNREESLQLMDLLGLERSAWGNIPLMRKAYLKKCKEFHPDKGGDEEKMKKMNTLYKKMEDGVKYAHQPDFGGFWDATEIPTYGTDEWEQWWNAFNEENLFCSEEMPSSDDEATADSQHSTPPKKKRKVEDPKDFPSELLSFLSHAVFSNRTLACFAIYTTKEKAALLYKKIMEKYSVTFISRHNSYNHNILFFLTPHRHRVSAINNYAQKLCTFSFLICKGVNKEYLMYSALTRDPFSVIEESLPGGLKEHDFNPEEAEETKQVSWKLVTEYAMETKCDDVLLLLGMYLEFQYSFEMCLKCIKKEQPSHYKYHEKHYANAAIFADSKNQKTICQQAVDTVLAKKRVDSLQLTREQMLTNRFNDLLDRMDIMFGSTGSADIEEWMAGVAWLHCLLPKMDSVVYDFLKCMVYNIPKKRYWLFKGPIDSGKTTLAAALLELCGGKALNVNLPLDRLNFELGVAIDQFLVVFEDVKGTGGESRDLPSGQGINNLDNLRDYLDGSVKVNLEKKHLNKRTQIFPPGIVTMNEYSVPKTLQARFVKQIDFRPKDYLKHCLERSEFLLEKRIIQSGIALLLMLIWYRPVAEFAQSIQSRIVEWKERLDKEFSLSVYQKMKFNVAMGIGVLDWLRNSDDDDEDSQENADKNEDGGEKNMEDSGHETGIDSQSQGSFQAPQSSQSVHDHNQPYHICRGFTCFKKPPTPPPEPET

[1] = microbe, parasite or virus in culture; format: functional; conditions: Mycobacterium tuberculosis
[2] = blockers of HIV-1 ZM109 envelope-driven cell-cell fusion – HeLa effector, CEM target cells, luciferase, cherry-pick, dose response (AID 652058); format: functional, cell-based;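 note: luciferase signal from HIV-1 Env mediated cell-cell fusion of effector and target cells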
[3] = luciferase reporter signal suppression in cells – H4 neuroglioma cells, luminescence, dose response (AID 1990); format: functional, cell-based
[4] = Luminescence Cell-Based Dose Response HTS to Identify Inhibitors of 5'UTR Stem-Loop Driven Prion Protein mRNA Translation in H4 Neuroglioblastoma Cells. [Related pubchem assays: 1827 (Project Summary), 1813 (Primary HTS)]; format: functional
[5] = alpha-synuclein stem-loop luciferase translation blockers – H4 neuroglioma cells, luminescence, confirmation (AID 1988); format: functional, cell-based
cells [6] = format: functional, cell-based
cells [7] = format: functional, cell-based; remark: listed apart in the source
[8] = Luminescence Cell-Based Dose Retest to Confirm Inhibitors of Cancer Stem Cells. [Related pubchem assays (depositor defined):AID2717, AID2721]; format: functional; conditions: Homo sapiens
H9c2 = assay: cells; format: functional, cell-based; conditions: Rattus norvegicus, H9c2, Myocardium;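 note: confirmatory concentration-response retest of ultra-high-throughput screening hits for modulation of myocardial damage; cell death induced by hydrogen peroxide oxidative stress; compound pretreatment for 60 min then peroxide exposure for 2 h; potency is for protecting the cells against peroxide damage rather than for killing them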
[9] = viability of PTEN-deleted HCT116 cells – cell-based, HCT116 PTEN knockout, dose response (AID 1047); format: functional;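 note: HCT116 colon tumor cells with PTEN knocked out; cells exposed to compound for 60 hours before readout; potency for loss of cell viability measured by luminescence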
[10] = viability of HCT116 lacking mutant beta-catenin – cell-based, human colon tumor, dose response (AID 1045); format: functional;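 note: HCT116 colon tumor cells with beta catenin knocked out; cells exposed to compound for 60 hours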
Cytochrome P450 2C19 = Cytochrome P450 2C19 (Homo sapiens, UniProt P33261); assay: Cytochrome panel assay with activity outcomes. Panel member name: p450-cyp2c19 Compounds with AC50 equal or less than 10 uM are considered active; format: functional; conditions: read-out: AC50
Chain of Cytochrome P450 2C19 (P33261 whole entry): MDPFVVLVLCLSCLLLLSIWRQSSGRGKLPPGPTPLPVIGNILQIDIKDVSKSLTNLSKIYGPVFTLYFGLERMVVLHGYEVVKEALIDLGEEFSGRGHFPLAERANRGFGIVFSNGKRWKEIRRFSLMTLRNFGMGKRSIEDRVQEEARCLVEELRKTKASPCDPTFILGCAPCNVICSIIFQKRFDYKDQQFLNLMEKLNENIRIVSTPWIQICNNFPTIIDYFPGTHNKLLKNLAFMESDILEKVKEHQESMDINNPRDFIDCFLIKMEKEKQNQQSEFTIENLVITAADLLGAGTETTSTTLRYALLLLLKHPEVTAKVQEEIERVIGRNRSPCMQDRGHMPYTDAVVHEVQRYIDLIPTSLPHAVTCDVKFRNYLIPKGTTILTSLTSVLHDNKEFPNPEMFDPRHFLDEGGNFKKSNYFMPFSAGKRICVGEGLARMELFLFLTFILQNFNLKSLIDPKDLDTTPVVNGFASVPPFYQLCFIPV

Cytochrome P450 1A2 = target: T2, Cytochrome P450 1A2 (Homo sapiens, UniProt P05177);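 note: PubChem cytochrome P450 panel assay, CYP1A2 panel member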
T2 sequence (P05177 whole entry): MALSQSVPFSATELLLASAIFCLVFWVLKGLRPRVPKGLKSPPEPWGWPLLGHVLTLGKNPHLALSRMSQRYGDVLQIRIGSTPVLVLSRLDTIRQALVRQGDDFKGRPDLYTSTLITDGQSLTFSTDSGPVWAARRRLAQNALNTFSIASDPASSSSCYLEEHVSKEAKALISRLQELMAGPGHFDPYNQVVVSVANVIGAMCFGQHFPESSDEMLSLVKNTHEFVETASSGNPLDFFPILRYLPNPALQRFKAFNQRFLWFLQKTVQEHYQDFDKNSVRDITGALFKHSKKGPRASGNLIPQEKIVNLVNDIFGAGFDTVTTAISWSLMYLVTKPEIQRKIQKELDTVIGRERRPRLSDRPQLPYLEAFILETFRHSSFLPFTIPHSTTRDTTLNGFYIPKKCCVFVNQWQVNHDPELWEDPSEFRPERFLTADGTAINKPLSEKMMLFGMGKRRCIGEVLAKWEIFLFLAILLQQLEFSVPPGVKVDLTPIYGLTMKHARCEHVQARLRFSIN

Cytochrome P450 3A4 = Cytochrome P450 3A4 (Homo sapiens, UniProt P08684);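 note: CYP3A4 tested as one member of a cytochrome P450 panel screen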
Chain of Cytochrome P450 3A4 (P08684 whole entry): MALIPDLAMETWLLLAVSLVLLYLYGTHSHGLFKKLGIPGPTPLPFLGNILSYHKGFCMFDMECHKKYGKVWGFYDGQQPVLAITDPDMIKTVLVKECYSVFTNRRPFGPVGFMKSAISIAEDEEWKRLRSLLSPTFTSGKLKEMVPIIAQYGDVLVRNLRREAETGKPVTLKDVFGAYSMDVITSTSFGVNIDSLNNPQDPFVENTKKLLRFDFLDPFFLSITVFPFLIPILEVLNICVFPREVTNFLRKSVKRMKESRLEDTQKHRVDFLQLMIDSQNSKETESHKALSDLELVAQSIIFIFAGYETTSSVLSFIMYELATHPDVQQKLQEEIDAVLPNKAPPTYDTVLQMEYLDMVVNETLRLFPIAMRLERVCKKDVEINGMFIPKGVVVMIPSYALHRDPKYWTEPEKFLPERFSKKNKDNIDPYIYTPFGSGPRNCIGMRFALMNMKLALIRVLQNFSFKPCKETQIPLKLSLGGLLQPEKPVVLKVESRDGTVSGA

With `CCCCCCCCNC(=O)C(CCC(=O)OCc1ccccc1)NC(C)=O` (stereo not drawn) the IC50 (Protein skinhead-1) was > 100 µM (inactive).

For `C=CCn1c(CC(=O)Nc2cccc(OC)c2)nnc1SCC(=O)NC1CCCCC1`, the IC50 (Protein skinhead-1) was > 100 µM (inactive).

In the case of `Cc1cc2c(N=O)c(NO)ccc2[nH]1`, the IC50 (Large T antigen) was 29.3 µM (active) and the CC50 [1] was 5.53 µM (active).

In the case of `O=C(Nc1ccc(F)cc1)Nc1ccc2c(c1)[C@@H]1C[C@H](CC(=O)N3CCCCC3)O[C@H](CO)[C@@H]1O2`, the AC50 [2] was 62.5 µM (active).

For `CCC(=O)Nc1nc(CC(=O)Nc2ccccc2OC)cs1`, the IC50 (Protein skinhead-1) was > 100 µM (inactive).

With `S=C(NN=C1CCN(Cc2ccccc2)CC1)NC1CCCCC1` the EC50 [3] was > 120 µM (not active), the EC50 [4] was > 120 µM (not active) and the EC50 [5] was > 120 µM (not active). For the same compound, the CC50 [1] was > 40 µM (active).

With `O=C(Nc1ccc2c(c1)OCO2)c1cccc(F)c1` the IC50 (Protein skinhead-1) was > 100 µM (inactive).

For `COc1ccc(NS(=O)(=O)c2ccc3c(c2)n(C)c(=O)n3C)cc1`, the IC50 (Protein skinhead-1) was > 100 µM (inactive).

For `Cn1cc(C(=O)c2ccc(Cl)cc2)cc1-c1nc2ccccc2n1C`, the CC50 [1] was > 40 µM (active).

In the case of `CCC(/C=C(\O)c1cccnc1)=N\c1ccc(C)c(C)c1`, the CC50 [1] was > 40 µM (active).

In the case of `Cc1cc(C)cc(NC(=O)CSc2ccc(-c3ccccn3)nn2)c1`, the EC50 [3] was 11.7 µM (active), the EC50 (cells [6]) was > 350 µM (not active) and the EC50 [4] was 9.74 µM (active). The EC50 [5] was 8.69 µM (active), the EC50 (cells [7]) was > 350 µM (not active) and the AC50 [8] was 4.57 µM (active). For the same compound, the IC50 (H9c2) was > 79 µM (inactive).

With `O=[N+]([O-])c1cccc(/C=N/Nc2nc(C(Cl)(Cl)Cl)nc3ccccc23)c1` the EC50 [9] was 24.4 µM (active) and the EC50 [10] was 25.2 µM (active).

For `CCOc1ccc(C(=O)NCC2CCCO2)cc1OCC` (stereo not drawn), the EC50 (cells [6]) was > 350 µM (not active) and the EC50 (cells [7]) was > 350 µM (not active).

For `CC(C)c1nc(CNC(=O)CCc2nnc(-c3ccsc3)o2)cs1`, the EC50 (cells [6]) was > 350 µM (not active) and the EC50 (cells [7]) was > 350 µM (not active).

For `COc1cccc(-c2cc(C(F)(F)F)n3nc(C(=O)N4CCC5(CC4)OCCO5)cc3n2)c1`, the EC50 (cells [6]) was > 350 µM (not active) and the EC50 (cells [7]) was > 350 µM (not active).

With `CCc1[nH]nc2c1/C(=N\O)CC(c1ccccc1)C2` (stereo not drawn) the EC50 [9] was 61.3 µM (active) and the EC50 [10] was 91.4 µM (active).

In the case of `O=C(c1cc(COc2ccc(F)cc2F)on1)N1CCCC(c2ccccc2)C1` (stereo not drawn), the CC50 [1] was > 40 µM (active).

For `COc1ccc(NC(=O)Nc2ccc(CC(=O)O)cc2)cc1`, the EC50 (cells [6]) was > 350 µM (not active) and the EC50 (cells [7]) was 139 µM (active).

For `CCc1ccc2nc(O)c(CN(CCCN3CCOCC3)C(=O)Nc3cccc(Cl)c3)cc2c1`, the CC50 [1] was 15 µM (active).

For `COC(=O)CC1C(=O)NCCN1C(=O)CSc1nnc(Nc2ccc(OC)cc2)s1` (stereo not drawn), the EC50 (cells [6]) was > 350 µM (not active) and the EC50 (cells [7]) was > 350 µM (not active).

In the case of `CC(C)(C)CC(=O)NC(=S)N1CCCCCC1`, the AC50 (Cytochrome P450 2C19) was 39.8 µM (inconclusive), the IC50 (Protein skinhead-1) was > 100 µM (inactive) and the AC50 (Cytochrome P450 1A2) was 15.8 µM (inconclusive). For the same compound, the AC50 (Cytochrome P450 3A4) was 12.6 µM (inconclusive).

In the case of `CC(C)NC(=O)CN(C)S(=O)(=O)c1ccc(F)cc1`, the IC50 (Protein skinhead-1) was > 100 µM (inactive).

In the case of `CCCn1cc(NC(=O)c2cc(-c3ccccc3)on2)cn1`, the EC50 (cells [6]) was 143 µM (active) and the EC50 (cells [7]) was 2.49 µM (active).

With `Cc1sc2nc(CN(C(=O)NC3CCCCC3)C3CCCC3)nc(O)c2c1C` the CC50 [1] was > 40 µM (active).

For `CCOC(=O)C(C)(C)N(Cc1ccc(Cl)cc1)S(=O)(=O)c1ccc(Cl)c([N+](=O)[O-])c1`, the EC50 [9] was 14.7 µM (active), the EC50 [10] was 8.15 µM (active) and the AC50 [8] was 2.07 µM (active).

With `CCCCCCn1c(COc2ccccc2F)nnc1SCC(=O)N1c2ccccc2NC(=O)C1(C)C` the EC50 [9] was 23.5 µM (active) and the EC50 [10] was 26.5 µM (active).

For `CCOC(=O)C1=C(COC(=O)c2ccc(Cl)cc2[N+](=O)[O-])NC(=O)NC1C` (stereo not drawn), the IC50 (Protein skinhead-1) was > 100 µM (inactive).

For `Cc1ccc(C)c(-c2cc(C(=O)Nc3cccc(C(=O)O)c3)c3ccccc3n2)c1`, the EC50 (cells [6]) was > 350 µM (not active) and the EC50 (cells [7]) was > 350 µM (not active).
